System: full length SMN2 minigene mRNA containing SMN2 exon 7 (SMN2-A minigene)
Experiment: SMN2 minigene mRNA splicing RT-qPCR assay in cultured cells
Assay type: cell-based, human
Conditions: for SMN2 minigene FL mRNA relative to vehicle / SMN2 minigene alternative splicing / exon 7 inclusion: HEK293H cells with SMN2-A minigene, 24 hr, RT-qPCR, FIG. 3; for EC (1.5-fold): Homo sapiens, HEK293-H, HEK293H cells stably transfected with SMN2-A minigene, 24 hours, 7-point concentration curve, concentration giving 1.5-fold SMN2 full length mRNA vs vehicle, read-out: EC1.5x for production of full length SMN2 mRNA
Method in brief: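 HEK293H cells stably carrying the SMN2-A minigene were treated 24 h at 37 °C with a 7-point, 3.16-fold test compound series, in duplicate. Multiplex RT-qPCR measured exon 7-containing minigene FL mRNA, normalized to GAPDH and expressed relative to vehicle; EC1.5x is the concentration giving 1.5-fold FL mRNA.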

| Compound | SMN2 minigene FL mRNA relative to vehicle | SMN2 minigene alternative splicing / exon 7 inclusion | EC (1.5-fold) [µM] |
| --- | --- | --- | --- |
| COc1ccc(-c2cc(=O)c3cc(N4CCN[C@@H](C)C4)ccc3o2)cc1F [Cpd 38, 2-(3-fluoro-4-methoxyphenyl)-6-[(3S)-3-methylpiperazin-1-yl]-4H-chromen-4-one] | increased SMN2 minigene FL mRNA at low concentrations | correction of SMN2 minigene alternative splicing | ≤ 0.1 |
| C[C@@H]1CN(c2ccc3oc(-c4cn5ccccc5n4)cc(=O)c3c2)C[C@H](C)N1 [Cpd 17, 6-[(3R,5S)-3,5-dimethylpiperazin-1-yl]-2-(imidazo[1,2-a]pyridin-2-yl)-4H-chromen-4-one] | increased SMN2 minigene FL mRNA at low concentrations | correction of SMN2 minigene alternative splicing | 1 to 3 |

From patent publication US9914722B2, “Compounds for treating spinal muscular atrophy” (PTC Therapeutics Inc., priority 2012, dated 2018)
